The values below come from US8604212B2, “Anti-shock agent comprising diaminotrifluoromethylpyridine derivative” (Ishihara Sangyo Kaisha, Ltd., priority 2009, dated 2013).

The test relates to mouse models with septic shock, the onset of which was peritonitis triggered by the cecal puncture. Nature of the test: Therapeutic effect on mouse models with septic shock, the onset of which was peritonitis triggered by the cecal puncture (viability test). It counts as in vivo. Particulars: for surviving rate: female BALB/c mice. The text has this: Therapeutic effects of N-(2-ethylsulfonylamino-5-trifluoromethyl-3-pyridyl)cylohexanecarboxamide sodium salt monohydrate (hereinafter referred to as compound 1) on mouse models with septic shock, the onset of which was peritonitis triggered by the cecal puncture, was examined.
The compound 1 was used as a drug formulation. The formulation composition (content per one vial) was as follows.
Age: 7 weeks old when purchased and 8 weeks old when tested
The mice were pre-bred for about a week after purchase and then subjected to a test at about 8 weeks old. Breeding in the entire breeding period was carried out in an isolator placed in a large animal room. Ten mice in each group were accommodated in a polycarbonate cage throughout the test period, and they were freely fed on commercially available complete feed pellet (MF, manufactured by O. B. S.) and tap water subjected to activated carbon filtration (with use of a feed water bottle) throughout the breeding period. From the mice, mice which were healthily grown during the pre-breeding period were selected. Mice were randomly selected from the above selected mice and delivered to the respective groups one by one in the order of the animal number. The animal number was put in the order of put into a cage after the grouping.
Preparation of the drug was carried out immediately before the induction operation, and administration was carried out by using the prepared liquid for administration. Japanese Pharmacopoeia 5% glucose was injected to a formulated product containing 100 mg of the compound 1 to completely dissolve the compound 1, and a liquid for administration at the maximum dose was prepared by diluting with Japanese Pharmacopoeia 5% glucose, and a liquid for administration at a medium dose and a liquid for administration at a low dose were prepared by stepwise dilution of the liquid for administration at the maximum dose with Japanese Pharmacopoeia 5% glucose. For the non-treated group, Japanese Pharmacopoeia 5% glucose as a medium alone was prepared. Immediately after the induction, 4 hours later, 8 hours later and 12 hours later, the liquid was repeatedly administered subcutaneously to the dorsal neck to maintain the blood concentration. The liquid was administered in a volume of 10 ml/kg for each group.
Mice were anesthetized with gas-oxygen-fluothane, and the corpus 8 mm from the cecal apex was ligated through an abdominal incision, one spot in the apex was punctured and transfixed with a 22 G needle, and after leakage of cecal contents was confirmed, the cecum was completely replaced in the abdomen and the abdomen was closed.
Viability test was carried out for 3 days from immediately after the induction, and the results were summarized every 24 hours.
Employing the non-treated group as a control, comparison among groups of a group given with 0.1 mg/kg of the compound 1, a group given with 1 mg/kg of the compound 1 and a group given with 10 mg/kg of the compound 1 was carried out.
Viability test results: animals which died in 0 to 24 hours were scored 1, animals which died in 24 to 48 hours were scored 2, animals which died in 48 to 72 hours were scored 3, and animals which survived 72 hours or more were scored 4, and the obtained data were used.
Comparison among groups was carried out by Shirley-Williams' multiple comparison test.

For `CCS(=O)(=O)Nc1ncc(C(F)(F)F)cc1NC(=O)C1CCCCC1.O.[Na]` [Compound 1, N-(2-ethylsulfonylamino-5-trifluoromethyl-3-pyridyl)cylohexanecarboxamide sodium salt monohydrate], the surviving rate came out at 20% (0.1 mg/kg x 4 times subcutaneous, 24 hr after induction of septic shock model); 0% (0.1 mg/kg x 4 times subcutaneous, 48 hr after induction of septic shock model); 0% (0.1 mg/kg x 4 times subcutaneous, 72 hr after induction of septic shock model); 40% (1 mg/kg x 4 times subcutaneous, 24 hr after induction of septic shock model); 10% (1 mg/kg x 4 times subcutaneous, 48 hr after induction of septic shock model); 10% (1 mg/kg x 4 times subcutaneous, 72 hr after induction of septic shock model). Moreover, the surviving rate is, setting by setting: (10 mg/kg x 4 times subcutaneous, 24 hr after induction of septic shock model) 90%; (10 mg/kg x 4 times subcutaneous, 48 hr after induction of septic shock model) 50%; (10 mg/kg x 4 times subcutaneous, 72 hr after induction of septic shock model) 50%. Besides, the “improvement in the surviving rate versus non-treated group (Shirley-Williams' multiple comparison test)” value (administration of 10 mg/kg, P<0.001) is on record as “improvement in the surviving rate with statical significance”.
